In US10077261B2, “Imidazolin-5-one derivative useful as FASN inhibitors for the treatment of cancer” (Janssen Pharmaceutica NV, priority 2012, dated 2018):

Experiments:
[1] = target: T1, hFASN enzyme (full length) (Homo sapiens, UniProt P49327); test: Fatty Acid Synthase (FASN) inhibition scintillation proximity assay; format: biochemical; details: for inhibition at 10 µM: read-out: Human FASN % inhibition @ 10 μM, 10 μM test compound; for IC50: read-out: Human FASN pIC50 (converted)
T1 construct: 10 μL hFASN enzyme (full length, 300 ng, purified in house); made in house
Procedure, shortened: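 Read-out relies on hydrophobic ³H-palmitate product, formed from ³H-acetyl-CoA and malonyl-CoA, binding streptavidin imaging beads, measured at 610±20 nm after at least 24 h. Full-length enzyme (300 ng) in phosphate buffer pH 7.5 with DTT; eight compound concentrations, 0.01–30 μM.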

A2780 ovarian cells [2] = test: A2780 ovarian cell proliferation assay in lipid reduced medium, with palmitate (MTT); format: cell-based; details: Homo sapiens, A2780, 96 h; read-out: pIC50 A2780 Ovarian Cell, With Palmitate (converted)
Procedure, shortened: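 In this palmitate-supplemented format, compound dilutions (30 μM down to 0.01 μM) are added to cells in lipid-reduced serum with 25 μM palmitate, 0.2% fatty-acid-free BSA and 0.25% ethanol. After four days (96 h) MTT absorbance at 544 nm is recorded and fitted by minimum sum of squares.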

A2780 ovarian cells [3] = test: A2780 ovarian cell proliferation assay in lipid reduced medium, without palmitate (MTT); format: cell-based; details: Homo sapiens, A2780, 96 h; read-out: pIC50 A2780 Ovarian Cell, Without Palmitate (converted)
[4] = tested on: LNCaP-Vancouver prostate cells; test: In vitro LNCaP Vancouver prostate cell proliferation assay in lipid reduced medium; format: cell-based; details: read-out: pIC50 LNCaP_Vancouver prostate cell (converted)
[5] = tested on: PC-3M-Luc-C6 prostate cells; test: In vitro PC-3M-Luc-C6 prostate cell proliferation assay in lipid reduced medium; format: cell-based; details: 96 h, read-out: pIC50 PC-3M-Luc-C6 prostate cell (converted)
[6] = target: Fatty Acid Synthase Keto-reductase Domain (FASN KR) (Homo sapiens, UniProt P49327); test: Fatty Acid Synthase keto-reductase domain (FASN KR) inhibition, NADPH oxidation at 340 nm
Sequence of Fatty Acid Synthase Keto-reductase Domain (FASN KR) (P49327 whole entry, the tested form may be a part): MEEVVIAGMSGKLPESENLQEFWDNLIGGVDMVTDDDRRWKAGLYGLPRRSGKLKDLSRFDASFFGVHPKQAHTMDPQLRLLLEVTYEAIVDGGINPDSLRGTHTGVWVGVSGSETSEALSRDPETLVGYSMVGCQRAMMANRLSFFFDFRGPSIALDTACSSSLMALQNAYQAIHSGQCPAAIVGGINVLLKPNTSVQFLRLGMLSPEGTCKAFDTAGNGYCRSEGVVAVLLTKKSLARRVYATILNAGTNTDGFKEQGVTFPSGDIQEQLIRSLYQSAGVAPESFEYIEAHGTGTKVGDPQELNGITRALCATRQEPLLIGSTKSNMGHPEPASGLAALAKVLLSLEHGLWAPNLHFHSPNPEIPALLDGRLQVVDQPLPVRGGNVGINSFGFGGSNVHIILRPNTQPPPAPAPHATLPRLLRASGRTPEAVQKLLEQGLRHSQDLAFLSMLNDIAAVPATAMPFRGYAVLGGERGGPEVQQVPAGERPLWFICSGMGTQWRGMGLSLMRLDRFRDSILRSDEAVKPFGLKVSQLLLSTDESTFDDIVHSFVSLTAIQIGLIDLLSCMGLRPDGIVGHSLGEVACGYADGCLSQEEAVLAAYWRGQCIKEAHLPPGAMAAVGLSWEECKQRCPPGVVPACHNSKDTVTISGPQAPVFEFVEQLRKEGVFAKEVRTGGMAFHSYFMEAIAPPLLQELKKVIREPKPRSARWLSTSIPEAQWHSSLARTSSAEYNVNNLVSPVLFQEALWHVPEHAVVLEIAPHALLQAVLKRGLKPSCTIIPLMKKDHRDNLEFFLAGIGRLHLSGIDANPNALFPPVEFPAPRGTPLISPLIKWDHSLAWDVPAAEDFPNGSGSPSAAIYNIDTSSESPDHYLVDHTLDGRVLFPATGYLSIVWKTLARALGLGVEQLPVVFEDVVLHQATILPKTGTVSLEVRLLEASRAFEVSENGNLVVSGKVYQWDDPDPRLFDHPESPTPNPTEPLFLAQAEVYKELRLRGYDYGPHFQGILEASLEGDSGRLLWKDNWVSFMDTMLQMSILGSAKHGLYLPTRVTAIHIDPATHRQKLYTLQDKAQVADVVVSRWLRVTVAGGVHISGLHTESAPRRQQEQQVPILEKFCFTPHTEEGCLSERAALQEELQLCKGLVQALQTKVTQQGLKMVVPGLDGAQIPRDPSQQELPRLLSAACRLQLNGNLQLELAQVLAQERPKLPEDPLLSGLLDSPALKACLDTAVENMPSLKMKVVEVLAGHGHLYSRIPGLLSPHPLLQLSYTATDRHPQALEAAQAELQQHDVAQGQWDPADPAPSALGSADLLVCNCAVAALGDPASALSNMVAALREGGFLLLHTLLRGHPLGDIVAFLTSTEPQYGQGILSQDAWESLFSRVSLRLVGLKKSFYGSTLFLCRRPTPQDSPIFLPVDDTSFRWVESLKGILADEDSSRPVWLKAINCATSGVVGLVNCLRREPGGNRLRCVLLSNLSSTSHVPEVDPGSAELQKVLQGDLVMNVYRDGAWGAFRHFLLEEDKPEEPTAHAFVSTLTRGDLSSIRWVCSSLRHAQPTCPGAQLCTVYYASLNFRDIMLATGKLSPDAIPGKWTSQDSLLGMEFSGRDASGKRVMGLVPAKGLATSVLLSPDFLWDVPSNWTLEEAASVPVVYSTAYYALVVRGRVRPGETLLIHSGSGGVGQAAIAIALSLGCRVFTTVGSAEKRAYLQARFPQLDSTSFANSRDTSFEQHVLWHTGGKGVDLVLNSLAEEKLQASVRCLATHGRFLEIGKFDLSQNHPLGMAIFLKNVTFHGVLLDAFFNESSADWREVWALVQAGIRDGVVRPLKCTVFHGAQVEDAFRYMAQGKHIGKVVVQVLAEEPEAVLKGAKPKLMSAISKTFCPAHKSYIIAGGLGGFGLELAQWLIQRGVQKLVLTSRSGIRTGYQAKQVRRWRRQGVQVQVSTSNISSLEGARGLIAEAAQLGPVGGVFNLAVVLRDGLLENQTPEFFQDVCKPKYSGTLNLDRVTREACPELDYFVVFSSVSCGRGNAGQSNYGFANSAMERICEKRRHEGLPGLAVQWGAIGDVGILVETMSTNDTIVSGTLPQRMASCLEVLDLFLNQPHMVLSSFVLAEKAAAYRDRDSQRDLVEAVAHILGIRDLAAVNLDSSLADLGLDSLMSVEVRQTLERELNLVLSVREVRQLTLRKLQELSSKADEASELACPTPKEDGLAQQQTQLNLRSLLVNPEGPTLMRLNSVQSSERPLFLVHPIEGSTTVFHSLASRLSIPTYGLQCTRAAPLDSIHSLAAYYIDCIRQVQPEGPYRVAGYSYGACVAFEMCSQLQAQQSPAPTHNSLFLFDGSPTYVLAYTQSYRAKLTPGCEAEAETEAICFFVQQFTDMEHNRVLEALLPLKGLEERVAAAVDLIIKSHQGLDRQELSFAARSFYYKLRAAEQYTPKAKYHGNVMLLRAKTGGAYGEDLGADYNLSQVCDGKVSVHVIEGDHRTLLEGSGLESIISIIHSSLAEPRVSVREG
Method: After 20 minutes incubation at room temperature the plate was measured again (T2).
The decrease in absorbance was calculated as (Absorbance before incubation T1)−(Absorbance following incubation T2).
A plot of Controlmin versus test compound concentration was fitted to a 4-parameter logistic curve using a non-linear least squares regression method.

T1 sequence (P49327 whole entry): as the sequence (P49327 whole entry, the tested form may be a part) above

SMILES	inhibition at 10 µM [1]	IC50 [1]	IC50 (A2780 ovarian cells [2])	IC50 (A2780 ovarian cells [3])	IC50 [4]	IC50 [5]	IC50 [6]
O=C(N1CC(CN2C(=O)C3(CC3)N=C2c2ccc(-c3ccc4cccc(F)c4c3)cc2F)C1)C1(O)CC1 [compound 374, 5-(2-fluoro-4-(8-fluoronaphthalen-2-yl)phenyl)-6-((1-(1-hydroxycyclopropanecarbonyl)azetidin-3-yl)methyl)-4,6-diazaspiro[2.4]hept-4-en-7-one]	99%	25.7 nM	> 10000 nM	10 nM	87.1 nM	20.4 nM	35.5 nM
Cc1sc2ccc(-c3ccc(C4=NC5(CCN(CCO)CC5)C(=O)N4C[C@@H]4CCN(C(=O)C5CC5)C4)cc3)cc2c1C [compound 742, 3-{[(3R)-1-(Cyclopropylcarbonyl)pyrrolidin-3-yl]methyl}-2-[4-(2,3-dimethyl-1-benzothiophen-5-yl)phenyl]-8-(2-hydroxyethyl)-1,3,8-triazaspiro[4.5]dec-1-en-4-one]	99%	191 nM	~6030 nM	~2510 nM	~4470 nM	~1740 nM	355 nM
Cc1cc(-c2ccc3c(cnn3C)c2)ccc1C1=NC2(CC2)C(=O)N1CC1CN(C(=O)C2CCO2)C1 (centres unmarked) [compound 545, 5-[2-Methyl-4-(1-methyl-1H-indazol-5-yl)phenyl]-6-{[1-(oxetan-2-ylcarbonyl)azetidin-3-yl]methyl}-4,6-diazaspiro[2.4]hept-4-en-7-one]	101%	110 nM	> 10000 nM	91.2 nM	269 nM	126 nM	257 nM
Cc1cc(-c2ccc3c(c2)ncn3C)ccc1C1=NC2(CC2)C(=O)N1CC1CN(C(=O)C2(C)CC2)C1 [compound 627, 6-({1-[(1-Methylcyclopropyl)carbonyl]azetidin-3-yl}methyl)-5-[2-methyl-4-(1-methyl-1H-benzimidazol-5-yl)phenyl]-4,6-diazaspiro[2.4]hept-4-en-7-one]	105%	107 nM	> 10000 nM	12 nM	~129 nM	47.9 nM	126 nM

Next, values leading:

inhibition at 10 µM [1]	IC50 [1]	IC50 (A2780 ovarian cells [2])	IC50 (A2780 ovarian cells [3])	IC50 [4]	IC50 [5]	IC50 [6]	SMILES
102%	16.6 nM	> 10000 nM	~30.9 nM	138 nM	33.9 nM	58.9 nM	O=C(C1CC1)N1CC(CN2C(=O)C3(CC3)N=C2c2ccc(-c3ccc4cc(F)ccc4c3)cc2F)C1 [compound 349, 6-((1-(cyclopropanecarbonyl)azetidin-3-yl)methyl)-5-(2-fluoro-4-(6-fluoronaphthalen-2-yl)phenyl)-4,6-diazaspiro[2.4]hept-4-en-7-one]
98%	55 nM	> 10000 nM	6.61 nM	~102 nM	21.4 nM	89.1 nM	O=C(C1CC1)N1CC[C@@H](CN2C(=O)C3(CC3)N=C2c2ccc(-c3c[nH]c4ccccc34)cc2F)C1 [compound 261, (R)-6-((1-(cyclopropanecarbonyl)pyrrolidin-3-yl)methyl)-5-(2-fluoro-4-(1H-indol-3-yl)phenyl)-4,6-diazaspiro[2.4]hept-4-en-7-one]
103%	16.2 nM	> 10000 nM	5.01 nM	23.4 nM	7.24 nM	17.8 nM	O=C(C1CC1)N1CC[C@@H](CN2C(=O)C3(CC3)N=C2c2ccc(-c3ccc4cc[nH]c4c3)cc2F)C1 [compound 247, (R)-6-((1-(cyclopropanecarbonyl)pyrrolidin-3-yl)methyl)-5-(2-fluoro-4-(1H-indol-6-yl)phenyl)-4,6-diazaspiro[2.4]hept-4-en-7-one]
99%	174 nM	> 10000 nM	263 nM	1320 nM	617 nM	427 nM	O=C(C1CC1)N1CC(CN2C(=O)C3(CC3)N=C2c2ccc(-c3ccc(Cl)cc3F)cc2F)C1 [compound 537, 5-(4′-Chloro-2′,3-difluorobiphenyl-4-yl)-6-{[1-(cyclopropylcarbonyl)azetidin-3-yl]methyl}-4,6-diazaspiro[2.4]hept-4-en-7-one]
